Reference: patent EP4000618A1, “COMBINATION OF AT LEAST ONE INHIBITOR OF THE XC TRANSPORTER WITH AT LEAST ONE INHIBITOR OF MEMBRANE-BOUND CATALASE FOR INHIBITING AND / OR INACTIVATING TUMOR CELLS” (Motz, Manfred, priority 2020, dated 2022)
Entries after “also recorded” stand apart in the source; their conditions may differ. Where a name gives a salt, the structure may show the parent alone.

System: humanen Magenkarzinomzellen (MKN-45)
Assay: Apoptosis induction in MKN-45 tumour cells after catalase inhibition; percentage of cells with apoptosis features counted by phase-contrast microscopy
Assay type: cell-based, human
Conditions: for Effect on the consequence of the 3-AT pretreatment (no lag phase, independence from aquaporins): inhibitor present during 1 h pretreatment with 3-AT (Figur 3B)
Text: Erfindungsgemäß wurden verschiedene Experimente mit humanen Magenkarzinomzellen (MKN-45) durchgeführt. Die experimentellen Einzelheiten der Versuche sind in der Literaturstelle Heinzelmann und Bauer, Biol. Chem. (2010) 391, S. 675-693 detailliert beschrieben. Auf die experimentelle Ausgestaltung wird hiermit ausdrücklich verwiesen.
In der Literaturstelle Heinzelmann und Bauer sind die Herkunft der jeweiligen Zellen, deren Anzuchtbedingungen, die Apoptoseinduktion und deren Messung beschrieben. Die membranständige Katalase wurde mit 3-Aminotriazol (3-AT) gehemmt. Spezifische Inhibitoren, die die Differenzierung zwischen dem reaktiven NO/Peroxynitritweg und dem HOCI-Weg erlauben, sind weiterhin in der Literaturstelle Heinzelmann und Bauer (a.a.o.) offenbart. Bei den einzelnen Auswertungen wurde die Apoptoseinduktion über die Quantifizierung des Prozentsatzes derjenigen Zellen bestimmt, die die Apoptosemerkmale Kernkondensation, Kernfragmentation und/oder Membrane-Blebbing aufwiesen. Die Quantifizierung erfolgte jeweils mit Hilfe eines Phasenkontrast-Umkehrmikroskops.

[1] = inhibitor added to 3-AT, whole 3-AT concentration range (Figur 1A, 1C)
[2] = inhibitor added to 3-AT, higher 3-AT concentration range (Figur 1A, 1B)

For `[Ag+]` [Silberionen], the “Hemmung der Apoptoseinduktion” value (1 h preincubation with 100 mM 3-AT, wash, 3-AT again with Silberionen (Figur 3A)) was “nicht mehr durch Silberionen zu hemmen”, the “Hemmung der Apoptoseinduktion” value (1 h preincubation without 3-AT, wash, then 3-AT with Silberionen (Figur 3A)) was “daher durch Silberionen zu hemmen” and the “Hemmung der Apoptoseinduktion” value (Silberionen 5 µM added before 3-AT 100 mM (Figur 2A)) was “blockiert die Apoptoseinduktion fast vollständig; also recorded: nur dann vollständig wirkt”. The “Hemmung der Apoptoseinduktion” value (Silberionen 5 µM added later, after 3-AT 100 mM (Figur 2A)) was “wirken schwächer oder gar nicht” and the “Hemmung der Apoptoseinduktion” value (Silberionen 5 µM added to 3-AT concentration series (Figur 1D, 4A)) was “hemmen die Apoptose vollständig; also recorded: durch Silberionen gehemmt; also recorded: blockieren die Apoptoseinduktion vollständig”.

For `O=C(O)c1cc(/N=N/c2ccc(S(=O)(=O)Nc3ccccn3)cc2)ccc1O` [Sulfasalazin], the “Abhängigkeit der Apoptoseinduktion von der Aquaporinwirkung (Hemmbarkeit durch Silberionen)” value (14 h pretreatment with rising concentrations of Sulfasalazin, then 3-AT (Figur 4B-D)) was “ersetzt graduell die Wirkung der Aquaporine; also recorded: in steigendem Umfang von der Aktivität der Aquaporine unabhängig”, the “Synergieeffekt mit 3-AT” value (Sulfasalazin and 3-AT given at the same time (Figur 5B)) was “bleibt dieser Synergieeffekt aus; also recorded: nicht ausreichend für die Induktion eines Synergieeffekts” and the “Absenkung der 3-AT-Konzentration bei gleichbleibendem Effekt” value (after Sulfasalazin pretreatment (Figur 4)) was “ca. zehnfacher Absenkung”. For the same compound, the “Synergieeffekt mit 3-AT” value (pretreatment of the cells with Sulfasalazin, then 3-AT (Figur 5A, 4A vs 4D)) was “konzentrationsabhängig zu einem Synergieeffekt; also recorded: Synergieeffekt zwischen 3-AT- und Sulfasalazinwirkung”, the “Abhängigkeit von der Aquaporinwirkung” value (pretreatment with 100 µM Sulfasalazin, then 3-AT (Figur 4D)) was “vollständig aufgehoben” and the “Signalweg der Apoptoseinduktion beim Synergieeffekt” value (pretreatment with 100 µM Sulfasalazin, then 3-AT, profile with FeTPPS and Taurin (Figur 6B)) was “vollständig durch den NO/Peroxynitritweg bedingt; also recorded: lediglich zu einer Verstärkung des NO/Peroxynitritwegs geführt”.

`COC(=O)[C@@H](N)CCCNC(=N)N[N+](=O)[O-]` [L-NAME, N-omega-nitro-L-arginine methylester hydrochloride] was tested, and the “Hemmung der Apoptoseinduktion” value (inhibitor added to 3-AT, low 3-AT concentration range (Figur 1B), hydrochloride) was “zur Hemmung; also recorded: Hemmung der Apoptose im niedrigeren 3-AT Konzentrationsbereich”.

With `NCCc1ccc(S(=O)(=O)F)cc1` [AEBSF, 4-(2-Aminoethyl)benzenesulfonyl fluoride] the “Hemmung der Apoptoseinduktion” value [1] was “gehemmt; also recorded: vollständigen Hemmung der Apoptose” and the “Effect on the consequence of the 3-AT pretreatment (no lag phase, independence from aquaporins)” value was “führt die Vorbehandlung nicht zu der unter A gezeigten Konsequenz”.

`COc1cccc(C=NCCN=Cc2cccc(OC)c2[O-])c1[O-].[Cl-].[Mn+3]` [EUK-134] was tested, and the “Hemmung der Apoptoseinduktion” value [2] was “nur in diesem Bereich zur Hemmung; also recorded: hemmt nur die durch höhere Konzentrationen an 3-AT induzierte Apoptose” and the “Effect on the consequence of the 3-AT pretreatment (no lag phase, independence from aquaporins)” value was “führt die Vorbehandlung nicht zu der unter A gezeigten Konsequenz”.

For `NCCS(=O)(=O)O` [Taurin], the “Hemmung der Apoptoseinduktion” value (Taurin added two hours after 3-AT (Figur 2B)) was “sofortigen Abbruch der Apoptoseinduktion; also recorded: erfolgreichen und sofortigen Hemmung der Apoptoseinduktion”, the “Steigerung der Apoptose” value (cells not pretreated, range 0.7 und 6 mM 3-AT (Figur 6A)) was “Steigerung der Apoptose” and the “Hemmung der Apoptoseinduktion” value [2] was “im höheren Konzentrationsbereich; also recorded: spezifisch Apoptose hemmen, die durch höhere Konzentrationen an 3-AT induziert wurde”.

`Cl.O=S(=O)([O-])c1ccc(-c2c3nc(c(-c4ccc(S(=O)(=O)O)cc4)c4ccc([nH]4)c(-c4ccc(S(=O)(=O)O)cc4)c4nc(c(-c5ccc(S(=O)(=O)O)cc5)c5ccc2[nH]5)C=C4)C=C3)cc1.[Fe]` [FeTPPS, 5-, 10-, 15-, 20-Tetrakis(4-sulfonatophenyl)porphyrinato iron(III) chloride] was tested, and the “Hemmung der Apoptoseinduktion” value (cells not pretreated, range 3-6 nM 3-AT (Figur 6A)) was “geringfügigen Anteil des NO/Peroxynitritwegs” and the “Hemmung der Apoptoseinduktion” value (inhibitor added to 3-AT, low 3-AT concentration range (Figur 1B)) was “zur Hemmung; also recorded: Hemmung der Apoptose im niedrigeren 3-AT Konzentrationsbereich”.

`OC[C@@H](O)[C@@H](O)[C@H](O)[C@H](O)CO` [Mannitol] was tested, and the “Hemmung der Apoptoseinduktion” value [1] was “gehemmt; also recorded: Hemmung der Apoptoseinduktion”.
